Tested on: 876862-298-R-J1-PDC complex spheroids, viability % test/control
Assay: Anticancer human tumor 876862-298-R-J1-PDC patient-derived endometrial carcinoma cell line growth inhibition [CLK]
Settings: for IC50: curve of first compound; for viability, T/C: stronger effect = lower value
Excerpt: A high-throughput screen of multi-cell type tumor spheroids was designed to identify active combinations of […] and targeted small molecules. Complex spheroids include a stromal component modeled by human endothelial cells (HUVEC) and fibroblasts modeled by human mesenchymal stem cells (MSCs). The concentration ranges selected for each drug and investigational agent were based upon clinically achievable concentrations if the clinical Cmax of the agent was known.
Compounds. The drugs and investigational agents: cirtuvivint (SM08502; NSC835563), CC-671 (NSC850746), vemurafenib (NSC761431), tapotoclax (NSC804041), sotorasib (NSC818433), adagrasib (NSC831453), MRTX-1133 (NSC836407), BAY2416964 (NSC825713), copanlisib (NSC816437), inavolisib (NSC800729), abemaciclib (NSC768073), osimertinib (NSC779217), entinostat (NSC756642), eltanexor (KPT-8602, NSC794443), venetoclax (NSC766270), ceralasertib (NSC777638), bortezomib (NSC756655), olaparib (NSC753686), talazoparib (NSC767125), alisertib (NSC759677), peposertib (NSC802822), gemcitabine (NSC613327), 5-fluorouracil (NSC19893), SN-38 (NSC673596), oxaliplatin (NSC266046), paclitaxel (NSC125973), and doxorubicin (NSC123127), were obtained from the National Cancer Institute (NCI) Developmental Therapeutics Program Chemical Repository. The FDA-approved anticancer drug set is available from the Developmental Therapeutics Program at https://dtp.cancer.gov/organization/dscb/obtaining/available plates.htm. […] The stock solutions were prepared in dimethyl sulfoxide (DMSO, Sigma-Aldrich, St. Louis, MO, cat. D2650), except for the platinum complexes which were prepared in saline (Quality Biological, Gaithersburg, MD, cat. 114-055-101), at 800-fold the tested concentration and stored at -70 degrees C prior to their use. All drugs and investigational agents were tested over a range starting from a high concentration at or near the clinical Cmax and decreasing in half-log increments. If the clinical Cmax for an agent had not been determined, the highest concentration tested was 10 microM.
Cell Culture. All cells were maintained in an incubator at 37 degrees C and 5% CO2 with 95% humidity. The PDC lines were cultured according to standard operating procedures established by the NCI PDMR. Briefly, all PDCs were thawed and cultured in Matrigel-coated flasks prepared with a working solution of 1X Ham's F-12 nutrient mix, without supplementation (Invitrogen, Waltham, MA, cat. 11765054), 100 U/mL penicillin-streptomycin (Invitrogen, cat. 15140122), and 2.5% Matrigel (Corning Inc., Corning, NY, cat. 354248) for the first three passages. The 947758-054-R-J2-PDC line was cultured in 6B/Colon 1A media, which includes advanced DMEM/F-12 (Thermo Fisher Scientific, cat. 12634028), 10 mM HEPES (Thermo Fisher Scientific, cat. 15630080), 1X GlutaMAX supplement (Thermo Fisher Scientific, cat. 35050061), 0.1 mg/mL primocin (InvivoGen, cat. ant-pm-2), 10% defined fetal bovine serum, heat inactivated (HyClone Laboratories Inc., cat. SH30070.03HI), 1.25 mM N-Acetyl-L-cysteine (Sigma-Aldrich, cat. A9165), 10 mM nicotinamide (Sigma-Aldrich, cat. N0636), 1X B-27 supplement (Thermo Fisher Scientific, cat. 17504044), 1X N-2 supplement (Thermo Fisher Scientific, cat. 17502048), and 10 microM Y-27632 dihydrochloride (Tocris Bioscience, cat. 1254). The 876862-298-R-J1-PDC was cultured in 6E media, which includes all 6B/Colon 1A media components plus 50% L-WRN conditioned media (ATCC, cat. CRL-3276), 50 ng/mL recombinant human EGF recombinant protein (hEGF; Thermo Fisher Scientific, cat. PHG0311), 10 ng/mL recombinant human fibroblast growth factor 10 (hGFG-10; PeproTech, cat. 100-26), 1 ng/mL recombinant human fibroblast growth factor 2 (hFGF-2; PeproTech, cat. 100-18B), and 1 µM prostaglandin E2 (PGE2; Tocris, cat. 2296). The 227483-062-R1-J1-PDC line was cultured in Panc media, containing all 6E components except hFGF-2, with the addition of 500 nM SB-431542 (Selleckchem, cat. S1067) and 10 nM gastrin (Tocris, cat. 3006). […]
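Further: spheroids exposed to drugs for 7 days before readout.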
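Wherever viability, T/C is given: 100% = DMSO vehicle control wells.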

## COC1C=CCC(C)C(C)S(=O)(=O)NC(=O)c2ccc3c(c2)N(CC2CCC21)CC1(CCCc2cc(Cl)ccc21)CO3 (configuration not stated) + CN1CCN(c2cc(C(=O)Nc3cc4cc(-c5cnn(C)c5)ccc4cn3)ccn2)CC1
Second compound 0.0316 µM
  IC50: 7390 nM
Second compound 0.1 µM
  IC50: 212 nM
Second compound 0.316 µM
  IC50: < 31.6 nM
Second compound 1 µM
  IC50: < 31.6 nM
Second compound 3.16 µM
  IC50: < 31.6 nM
Second compound 10 µM
  IC50: < 31.6 nM
Second compound 0.0316 µM, first compound 0.0316 µM
  viability, T/C: 93.9%
Second compound 0.0316 µM, first compound 0.1 µM
  viability, T/C: 96.6%
Second compound 0.0316 µM, first compound 0.316 µM
  viability, T/C: 97.6%
Second compound 0.0316 µM, first compound 1 µM
  viability, T/C: 96.3%
Second compound 0.0316 µM, first compound 3.16 µM
  viability, T/C: 96.7%
Second compound 0.0316 µM, first compound 10 µM
  viability, T/C: 33.5%
Second compound 0.1 µM, first compound 0.0316 µM
  viability, T/C: 56.9%
Second compound 0.1 µM, first compound 0.1 µM
  viability, T/C: 51.1%
Second compound 0.1 µM, first compound 0.316 µM
  viability, T/C: 47.6%
Second compound 0.1 µM, first compound 1 µM
  viability, T/C: 39%
Second compound 0.1 µM, first compound 3.16 µM
  viability, T/C: 38.6%
Second compound 0.1 µM, first compound 10 µM
  viability, T/C: 18.8%
Second compound 0.316 µM, first compound 0.0316 µM
  viability, T/C: 4.28%
Second compound 0.316 µM, first compound 0.1 µM
  viability, T/C: 3.17%
Second compound 0.316 µM, first compound 0.316 µM
  viability, T/C: 2.26%
Second compound 0.316 µM, first compound 1 µM
  viability, T/C: 1.91%
Second compound 0.316 µM, first compound 3.16 µM
  viability, T/C: 1.34%
Second compound 0.316 µM, first compound 10 µM
  viability, T/C: 0.56%
Second compound 1 µM, first compound 0.0316 µM
  viability, T/C: 0.93%
Second compound 1 µM, first compound 0.1 µM
  viability, T/C: 0.64%
Second compound 1 µM, first compound 0.316 µM
  viability, T/C: 25.5%
Second compound 1 µM, first compound 1 µM
  viability, T/C: 0.78%
Second compound 1 µM, first compound 3.16 µM
  viability, T/C: 25.2%
Second compound 1 µM, first compound 10 µM
  viability, T/C: 2.2%
Second compound 3.16 µM, first compound 0.0316 µM
  viability, T/C: 1.34%
Second compound 3.16 µM, first compound 0.1 µM
  viability, T/C: 1.14%
Second compound 3.16 µM, first compound 0.316 µM
  viability, T/C: 1.59%
Second compound 3.16 µM, first compound 1 µM
  viability, T/C: 1.26%
Second compound 3.16 µM, first compound 3.16 µM
  viability, T/C: 1.14%
Second compound 3.16 µM, first compound 10 µM
  viability, T/C: 0.26%
Second compound 10 µM, first compound 0.0316 µM
  viability, T/C: 1.69%
Second compound 10 µM, first compound 0.1 µM
  viability, T/C: 1.52%
Second compound 10 µM, first compound 0.316 µM
  viability, T/C: 2.33%
Second compound 10 µM, first compound 1 µM
  viability, T/C: 26.3%
Second compound 10 µM, first compound 3.16 µM
  viability, T/C: 1.84%
Second compound 10 µM, first compound 10 µM
  viability, T/C: 1.78%

— PubChem BioAssay AID2060607 (Molecular Pharmacology Branch, DTP, NCI, 2025)
